Data set [1] relates to L. infantum (LV50 and Drep-14) and L. major (Empa-12) promastigotes. The data set is described as follows: MTT promastigote viability assay, stated across the three strains. In kind it is cell-based, Leishmania infantum, Leishmania major. As to conditions: 72 h; for Effect on promastigote viability: three strains, at the tested concentrations. The text has this: (§1) Three Tunisian laboratory strains already described ([Oualha et al., 2019]), originally isolated from distinct clinical manifestations were used in this study: (i) L. infantum LV50 MHOM/TN/94/LV50) strain originating from a bone marrow of a visceral leishmaniasis patient, (ii) L. infantum Drep-14 (MHOM/TN/96/Drep-14) strain isolated from a lesion of a sporadic cutaneous leishmaniasis patient and (iii) L. major Empa-12 (MHOM/TN/2012/Empa-12) strain isolated from a zoonotic cutaneous leishmaniasis patient. Stocks of these parasites obtained after passage through BALB/c mice were used as previously described ([Oualha et al., 2019]). Thawed cryopreserved parasites were cultured at 22°C in RPMI-1640/Glutamax medium (Gibco BRL, Germany) containing penicillin (100 U/mL) and streptomycin (100 μg/mL) supplemented with 10% heat-inactivated Fetal Bovine Serum (FBS) (Gibco BRL, Germany).
(§2) The effect of the selected compounds on the viability of Leishmania promastigotes was evaluated by a colorimetric MTT (3-(4,5-dimethylthiazol-2yl)-2,5-diphenyl tetrazolium bromide) assay. It consists in the reduction of tetrazolium salt to a […] crystal (blue formazan) by the succinate dehydrogenase activity of mitochondria in living cells, which can be quantified by spectrophotometry. Briefly, 90 μL of promastigotes (5 × 10^5 parasites/well) harvested from the stationary growth phase of each strain were added to a 96-well culture plate and incubated with 10 μL of a range of serial dilutions of the selected compounds in technical replicates (final concentration of 1% DMSO per well) ([Ioset et al., 2009]; [Harigua-Souiai et al., 2018]). […] After 72h of incubation at 22°C, 25 μl of MTT solution (5 mg/mL) was added to each well and incubated at 22°C for 4h. Then, 150 μl of DMSO was added to each well to dissolve the blue formazan and the optical density (OD) was measured at 570 nm with a microplate reader ([…], Labsystems). Promastigotes incubated in complete medium containing 1% DMSO were used as negative control. The standard anti-Leishmania drug, Amphotericin B was used as a positive control. All experiments were performed in two technical replicates and repeated three times in independent experiments. The mean percentage of promastigotes viability was calculated from the Optical Density at 570 nm as follows:
(§3) Promastigote viability (%)= [(ODcompound− ODblank)/(ODnegative control −ODblank)]*100
(§4) Results were expressed as the mean value of the percentage of promastigotes viability ± standard deviation (SD).
(In general: Tetrazolium assays rely on reduction of a dye to a coloured formazan, in cell work by metabolically active cells.)

Data set [2] is described as follows: Cytotoxicity assay towards THP-1-derived macrophages (MTT). In kind it is cell-based, human. The conditions noted are these: human, THP-1-derived macrophages (PMA-differentiated), 72 h of treatment, uninfected cells, MTT. As to the method:
(§5) Louis, MO, USA). The PMA-treated THP-1 cells were maintained in this condition for 24 h, followed by a 24 h of rest period after the removal of PMA. […] The cytotoxicity towards THP-1-derived macrophages was assessed after 24, 48 and 72 hours of incubation by MTT assay as described above. […] The percentage of viable cells was calculated from the Optical Density at 570 nm as follows: […]

The test system of data set [3] is THP-1-derived macrophages. The data set is described as above. In kind it is cell-based, human. As to the method: as §5
The test system of data set [4] is L. infantum LV50 promastigotes. The data set is described as follows: MTT-based promastigote viability assay, L. infantum LV50. Type of data set: cell-based. The conditions noted are these: Leishmania infantum, LV50, 72 h, MTT.
Source text: as §1, §2, §3, §4

Data set [5] concerns L. infantum Drep-14 promastigotes. The data set is described as follows: microbe, parasite or virus in culture. Type of data set: cell-based. The conditions noted are these: Leishmania infantum, 72 h.
Source text: as §1, §2, §3, §4

Data set [6] relates to L. major Empa-12 intracellular amastigotes. The data set is described as follows: Anti-amastigote assay in THP-1-derived macrophages, L. major Empa-12. In kind it is cell-based, Leishmania major. As to conditions: for IC50: Leishmania major, Macrophage, Empa-12, intramacrophage, 72 h. As to the method:
(§6) THP-1-derived macrophages (5 × 10^4/well) were seeded in each 8-well Labtek slides (Thermo Scientific). Adherent macrophages were obtained as described above, then infected with stationary phase promastigotes of each strain at a ratio 10:1 (10 parasites/macrophage) in RPMI medium containing penicillin (100 U/mL) and streptomycin (100 μg/mL) with 10% fetal bovine serum (Gibco, Brazil) at 37°C in 5% CO2 for 24 h. […] Non-infected control cells were incubated in a supplemented RPMI medium containing 1% DMSO. After 72h of incubation, cells were fixed and stained using May-Grunwald-Giemsa staining with RAL 555 Kit (RAL DIAGNOSTICS, France), following the manufacturer’s instructions. The percentage of infected cells and the total number of internalized parasites per 100 macrophages were determined under immersion oil (magnification of 1000X) using light microscopy. The percentage of amastigotes viability was expressed as the percentage of total number of internalized parasites within treated cells relative to the total number of internalized parasites within control cells treated with 1% DMSO, and calculated as follows:
(§7) Relative amastigote viability (%) = [(number of amastigotes/100 treated cells)/(number of amastigotes/100 treated cells with1% DMSO)] * 100
(§8) The relative percentage of amastigote viability was evaluated to calculate half inhibitory concentrations (IC50). The mean IC50 values were determined by plotting the curves of the logarithm of compound concentrations versus the relative amastigote viability of three independent experiments performed in two technical replicates for each compound fitted into a nonlinear regression model, using GraphPad Prism version 8.0.1. Selectivity Index (SI) values were calculated as the ratio between cytotoxicity and activity against amastigotes and determined for each compound as follows: SI= CC50/IC50.

The test system of data set [7] is L. major Empa-12 promastigotes. Kind of data set: MTT-based promastigote viability assay, L. major Empa-12. Type of data set: cell-based. As to conditions: Leishmania major, Empa-12, 72 h, MTT.
Source text: as §1, §2, §3, §4

Data set [8] deals with L. infantum LV50 intracellular amastigotes. Kind of data set: Anti-amastigote assay in THP-1-derived macrophages, L. infantum LV50. Type of data set: cell-based, Leishmania infantum. The conditions noted are these: for IC50: Leishmania infantum, Macrophage, LV50, intramacrophage, 72 h. On the procedure:
as §6, §7, §8

Data set [9] has as its system L. major and L. infantum amastigotes. Kind of data set: Anti-amastigote assay, stated across the three strains. Type of data set: cell-based, Leishmania infantum, Leishmania major. The conditions noted are these: CC50/IC50 amastigotes. On the procedure:
as §6, §7, §8

Data set [10] deals with Leishmania (Viannia) braziliensis. More on the design: method as in Cazorla et al., 2004. The conditions noted are these: hamsters infected with Leishmania (Viannia) braziliensis, versus Glucantime; ref Cazorla et al., 2004; cited from earlier work.
The test system of data set [11] is L. infantum Drep-14 intracellular amastigotes. Kind of data set: Anti-amastigote assay in THP-1-derived macrophages, L. infantum Drep-14. Type of data set: cell-based, Leishmania infantum. The conditions noted are these: Leishmania infantum, Macrophage, Drep-14, intramacrophage, 72 h. As to the method:
as §6, §7, §8

For data set [12], the system named is L. infantum. Details: method as in Gómez-Ochoa et al., 2009. As to conditions: 98 dogs naturally infected with L. infantum, 12-months follow-up; ref Gómez-Ochoa et al., 2009; cited from earlier work.
Data set [13] deals with L. infantum. Details: method as in Cavalera et al., 2021. As to conditions: dogs with leishmaniasis and chronic kidney disease; ref Cavalera et al., 2021; cited from earlier work.
For data set [14], the system named is multiple strains of L. donovani. More on the design: method as in Pandharkar et al., 2014. As to conditions: ref Pandharkar et al., 2014, read-out: IC50 in vitro; cited from earlier work.
Setting [15] is: read-out: THP-1-derived macrophages CC50.
[16] abbreviates: read-out: THP-1-derived macrophages CC50 (in brackets) (converted).
Setting [17] is: read-out: Promastigotes IC50 (in brackets) (converted).
The mark [18] stands for this setting: read-out: Amastigotes IC50 (in brackets) (converted).

Each structure is given as a SMILES string. ≈ marks a conversion by molar mass, not a printed value. Where two headings read alike, the source gives them in different places.

By IC50 is commonly meant the concentration at which inhibition is half-maximal. For orientation: CC50 means the concentration that lowers cell viability or growth by half.

In the case of `CCCCOc1cc(C(=O)NCCN(CC)CC)c2ccccc2n1` [Dibucaine], the IC50 in data set [1] (Leishmania infantum, LV50, Drep-14, Empa-12, MTT, read-out: Promastigotes IC50, span over the three strains) was 0.58 to 1.05 µg/mL (≈ 1.69 to 3.06 µM); in data set [4] (read-out: Promastigotes IC50) it was 0.58 ± 0.02 µg/mL; in data set [4] (setting [17]), 1530 nM; in data set [5] (read-out: Promastigotes IC50), 1.05 ± 0.06 µg/mL; in data set [5] (read-out: Promastigotes IC50 (in brackets)) it was 2760 nM; in [6] (read-out: Amastigotes IC50) it was 0.83 ± 0.05 µg/mL. Besides, the IC50 in data set [6] (setting [18]) is 2190 nM; in [7] (read-out: Promastigotes IC50), 1.04 ± 0.09 µg/mL; in data set [7] (setting [17]), 2740 nM; in [8] (read-out: Amastigotes IC50), 0.71 ± 0.09 µg/mL; in [8] (setting [18]), 1870 nM; in data set [11] (read-out: Amastigotes IC50), 0.9 ± 0.03 µg/mL. The IC50 in data set [11] (setting [18]) was 2370 nM. In addition, in data set [1], the “Effect on promastigote viability” value is reported as “dose-dependent decrease of parasite viability”. The values for the CC50 at 72 h in data set [2] (setting [15]) and in data set [2] (setting [16]) were 22.7 ± 1.08 µg/mL and 59700 nM, respectively. Also, the “Concentration at which cytotoxic effects start” value in [3] (24 h of incubation) was determined as 30000 ng/mL; in [3] (48 h of incubation), 30000 ng/mL; in data set [3] (72 h of incubation) it was 15000 ng/mL. In addition, the “Selectivity Index (SI)” value in [6] (CC50 THP-1 / IC50 amastigotes Empa-12, 72 h) was determined as 27.35; in data set [8] (CC50 THP-1 / IC50 amastigotes LV50, 72 h), 31.97. Further, the “Selectivity index (SI), span over strains” value in [9] was more than 25. Also, the “Efficacy of intralesional treatment in hamsters” value in data set [10] was “comparable to the standard dosages of Glucantime”.
For `O=c1[nH]c2ccccc2n1CCCN1CCC(n2c(=O)[nH]c3cc(Cl)ccc32)CC1` [Domperidone], the “Effect on promastigote viability” value in data set [1] is given as “dose-dependent decrease of parasite viability”. In addition, the 50% cytotoxic concentration (CC50) at 72 h is 26.5 ± 2.6 µg/mL in data set [2] (setting [15]) and 62400 nM in [2] (setting [16]). Further, the “Concentration at which cytotoxic effects start” value in data set [3] (24 h of incubation), in [3] (48 h of incubation) and in data set [3] (72 h of incubation) was 25000 ng/mL in each case. Further, in the data set on L. infantum [12], the “Clinical outcome in dogs” value was “effectively reduced clinical symptoms and antibody levels”. For the same compound, in the data set with L. infantum [13], the “Serum markers in dogs” value was “improve serum creatinine and to reduce anti-L. infantum antibody titers, globulins, gamma globulins, and C-reactive protein (CRP)”.
Turning to `OC(Cn1cncn1)(Cn1cncn1)c1ccc(F)cc1F` [Fluconazole], the IC50 in data set [14] was 140000 ± 50000 nM.
On to `CCN(CC)CCOC(=O)c1ccc(N)cc1` [Procaine], for which, in [10], the “Efficacy of intralesional treatment in hamsters” value was “lower efficacy”.

The record behind these values is publication PMC11464777, “Approved drugs successfully repurposed against Leishmania based on machine learning predictions” (Frontiers in Cellular and Infection Microbiology, 2024).
